Test results published in patent EP0518753B1, “Derivatives of 1,5-diyne-3-cycloalcene, their process of preparation and pharmaceutical compositions containing them” (ADIR ET COMPAGNIE, priority 1991, dated 1992).

These compounds were tested on cellules L 1210 (Leucémie murine) (assay: In vitro cytotoxicity, Microculture Tetrazolium Assay (cell growth inhibition)). Settings: Mus musculus, L1210, L 1210 cells in RPMI 1640 with 10 % fetal calf serum, read-out: IC₅₀, concentration inhibant à 50 % la croissance cellulaire.
Assay type: cell-based
Procedure: Les cellules L 1210 (Leucémie murine) sont cultivées dans du RPMI 1640 complémenté avec 10 % de sérum de veau foetal, 2 mM de L-glutamine, 100 unités/ml de pénicilline, 100 µg/ml de streptomycine et 10 mM d'Hepes (pH : 7,4). L'inhibition de la croissance cellulaire est mesurée selon le "Microculture Tetrazolium Assay" décrit par M. ALLEY et coll. (Cancer Res., 48, 589-601, 1988).
Les résultats de ce test sont exprimés en IC₅₀, concentration inhibant à 50 % la croissance cellulaire. Le produit de référence utilisé est le BCNU, agent alkylant très actif utilisé en clinique.

SMILES | IC50 [µM]
O=NN(CCCl)C(=O)NCCCl [BCNU, reference compound] | 6.4
CC(=O)OC1C#C/C=C\C#CCCC1 (stereo not drawn) [exemple 2, 7-Acétoxy-1,5-diyne-3-cyclodécène] | 5.6
O=C1C#Cc2ccccc2C#CCCC1 [exemple 7, 7-Oxo-benzo[c]cyclodéca-1,5-diyne] | 0.5
